# Measurements reported in patent publication US20230024108A1, “ADENOSINE A2A RECEPTOR ANTAGONISTS” (Teon Therapeutics, Inc., priority 2019, published 2023).
# How the values were obtained:
# A1AdoR = biological target: T1, A1AdoR (Homo sapiens, UniProt P30542); experiment: Adenosine receptor binding assay, A1 ([3H]-DPCPX); settings: ratio A1 vs A2A binding
# T1 construct: purchased PerkinElmer ES-010-M400UA
# T1 sequence (P30542 1-326): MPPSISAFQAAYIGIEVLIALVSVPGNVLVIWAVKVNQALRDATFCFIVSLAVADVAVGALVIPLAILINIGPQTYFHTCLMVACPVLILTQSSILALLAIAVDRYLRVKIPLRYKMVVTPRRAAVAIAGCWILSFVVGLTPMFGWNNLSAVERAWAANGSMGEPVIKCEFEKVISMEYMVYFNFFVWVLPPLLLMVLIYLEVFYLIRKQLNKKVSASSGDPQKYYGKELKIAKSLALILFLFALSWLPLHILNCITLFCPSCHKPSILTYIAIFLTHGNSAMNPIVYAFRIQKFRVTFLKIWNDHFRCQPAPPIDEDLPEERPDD
# Description: (§1) Membranes prepared from CHO-K1 cells stably expressing Human AiAdoR (ES-010-M400UA), HEK-293 cells stably expressing human A2A AdoR (RBHA2AM400UA), HEK-293 cells stably expressing human A2B AdoR (ES-013-M400UA) and CHO-K1 cells stably expressing Human A3 AdoR (ES-012-M400UA) were purchased from PerkinElmer (Waltham, Mass., USA) and stored at −80° C. until use. Binding assays are performed using the radioligands. The final concentrations are as follows: [3H]-DPCPX (PerkinElmer, NET974001MC) at 1 nM for A1AdoR; [^3H]-CGS-21680 (PerkinElmer, NET1021250UC) at 6 nM for A2AAdoR, [3H]-DPCPX (PerkinElmer, NET974001MC) at 8 nM for A2BAdoR; [^3H]-HEMADO (ARC, Cat: ART1456) at 1 nM for A3AdoR. Testing compounds are diluted with DMSO to make 8-point 4-fold serial dilution. Nonspecific binding (Low control: LC) and total binding (High control: HC) are determined in the presence or absence of saturated cold ligand. Specific binding is calculated by subtracting nonspecific binding from total binding. All assays are performed in a final volume of 200 μl containing 1 μl of the test compound in DMSO, 100 μl of membrane preparation, and 99 μl of the radioligand in assay buffer (A1AdoR: 25 mM HEPES pH 7.4, 5 mM MgCl2, 1 mM CaCl2), 100 mM NaCl; A2AAdoR: 50 mM Tris HCl pH 7.4, 10 mM MgCl2, 1 mM EDTA; A2BAdoR: 50 mM HEPES pH 7.0, 5 mM MgCl2, 1 mM EDTA; A3AdoR: 25 HEPES pH 7.4, 10 mM MgCl2, 1 mM CaCl2), 0.5% BSA). The incubation is performed at room temperature with shaking at 300 rpm for 1 hour for A1AdoR, A2BAdoR and A3AdoR and 2 hours for A2AAdoR. After the incubation, the assay mixture is filtered through 96 GF/C filter plates (Perkin Elmer #6005174) using Perkin Elmer Filtermate Harvester, and then washed four times with ice-cold washing buffer (A1AdoR: 25 mM HEPES pH 7.4, 5 mM MgCl2, 1 mM CaCl2), 100 mM NaCl; A2AAdoR: 50 mM Tris HCl pH 7.4, 154 mM NaCl; A2BAdoR: 50 mM HEPES pH 6.5, 5 mM MgCl2, 1 mM EDTA, 0.2% BSA; A3AdoR: 50 mM Tris HCl pH 7.4). The filters are dried for 1 hour at 50° C. and [^3H] trapped on filter counted for radioactivity in Perkin Elmer Microscint 20 cocktail (#6013329) using Perkin Elmer MicroBeta2 Reader. The results are expressed as a percent inhibition of the control radioligand specific binding calculated using the following equation: % Inhibition=(1−(Assay well-Average_LC)/(Average_HC−Average_LC))×100%. Data are analyzed and IC50 is calculated using GraphPad Prism 5 and the model “log(inhibitor) vs. response—Variable slope”. The binding affinity of the compounds is determined by using the Cheng and Prusoff equation Ki=IC50/(1+[radioligand]/Kd).
# human A2A AdoR = biological target: T2, human A2A AdoR (Homo sapiens, UniProt P29274); experiment: Adenosine receptor binding assay, A2A ([3H]-CGS-21680); settings: membranes of HEK-293 cells expressing human A2A AdoR; read-out: hA2A IC50
# T2 construct: purchased PerkinElmer RBHA2AM400UA
# T2 sequence (P29274 whole entry): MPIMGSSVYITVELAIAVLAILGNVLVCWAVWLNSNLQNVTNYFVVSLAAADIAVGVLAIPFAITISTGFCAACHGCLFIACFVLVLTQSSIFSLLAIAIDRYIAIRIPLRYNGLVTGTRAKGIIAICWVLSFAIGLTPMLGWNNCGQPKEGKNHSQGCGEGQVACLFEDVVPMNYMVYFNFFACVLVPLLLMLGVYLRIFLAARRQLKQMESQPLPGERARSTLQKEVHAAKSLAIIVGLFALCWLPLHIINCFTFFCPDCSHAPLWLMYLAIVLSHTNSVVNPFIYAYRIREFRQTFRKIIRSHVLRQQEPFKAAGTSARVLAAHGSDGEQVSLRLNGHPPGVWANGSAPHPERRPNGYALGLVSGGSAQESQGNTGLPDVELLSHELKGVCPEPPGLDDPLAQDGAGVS
# Description: as §1
Structure (SMILES),IC50 (human A2A AdoR) [nM],A1/A2A Selectivity (A1AdoR)
"NC(=O)c1c(Cl)c2c(nc(N)n3nc(-c4ccccn4)nc23)n1CCN1CCN(c2ccncc2)CC1 [5-amino-9-chloro-2-(pyridin-2-yl)-7-(2-(4-(pyridin-4-yl)piperazin-1-yl)ethyl)-7H-pyrrolo[3,2-e][1,2,4]triazolo[1,5-c]pyrimidine-8-carboxamide]",≤ 20,c (greater than 0 but less than or equal to 100)
"NC(=O)c1c(Cl)c2c(nc(N)n3nc(-c4ccccn4)nc23)n1CCN1CCN(c2ncccn2)CC1 [5-amino-9-chloro-2-(pyridin-2-yl)-7-(2-(4-(pyrimidin-2-yl)piperazin-1-yl)ethyl)-7H-pyrrolo[3,2-e][1,2,4]triazolo[1,5-c]pyrimidine-8-carboxamide]",≤ 20,c (greater than 0 but less than or equal to 100)
"Cc1c(C(N)=O)n(CCN2CCN(c3ccncc3)CC2)c2nc(N)n3nc(-c4ccccn4)nc3c12 [5-amino-9-methyl-2-(pyridin-2-yl)-7-(2-(4-(pyridin-4-yl)piperazin-1-yl)ethyl)-7H-pyrrolo[3,2-e][1,2,4]triazolo[1,5-c]pyrimidine-8-carboxamide]",≤ 20,c (greater than 0 but less than or equal to 100)
"Cc1cn(CCN2CCCN(c3cc(-c4ncco4)ccc3F)CC2)c2nc(N)n3nc(-c4ccccn4)nc3c12 [7-(2-(4-(2-fluoro-5-(oxazol-2-yl)phenyl)-1,4-diazepan-1-yl)ethyl)-9-methyl-2-(pyridin-2-yl)-7H-pyrrolo[3,2-e][1,2,4]triazolo[1,5-c]pyrimidin-5-amine]",≤ 20,c (greater than 0 but less than or equal to 100)
"Nc1nc2c(c(Cl)c(C(=O)O)n2CCN2CCN(c3ccncc3)CC2)c2nc(-c3ccccn3)nn12 [5-amino-9-chloro-2-(pyridin-2-yl)-7-(2-(4-(pyridin-4-yl)piperazin-1-yl)ethyl)-7H-pyrrolo[3,2-e][1,2,4]triazolo[1,5-c]pyrimidine-8-carboxylic acid]",20 to 100,b (greater than 100 but less than or equal to 1000)
"Cc1cnc2c(c1)CN(CCn1c(C(N)=O)c(Cl)c3c1nc(N)n1nc(-c4ccccn4)nc31)CC2 [5-amino-9-chloro-7-(2-(3-methyl-7,8-dihydro-1,6-naphthyridin-6(5H)-yl)ethyl)-2-(pyridin-2-yl)-7H-pyrrolo[3,2-e][1,2,4]triazolo[1,5-c]pyrimidine-8-carboxamide]",≤ 20,c (greater than 0 but less than or equal to 100)
Cc1noc2cc(F)c(N3CCCN(CCn4c(C(N)=O)c(Cl)c5c4nc(N)n4nc(-c6ccccn6)nc54)CC3)cc12,≤ 20,b (greater than 100 but less than or equal to 1000)
"Cc1c(C(=O)O)n(CCN2CCCN(c3cc(-c4ncco4)ccc3F)CC2)c2nc(N)n3nc(-c4ccccn4)nc3c12 [5-amino-7-(2-(4-(2-fluoro-5-(oxazol-2-yl)phenyl)-1,4-diazepan-1-yl)ethyl)-9-methyl-2-(pyridin-2-yl)-7H-pyrrolo[3,2-e][1,2,4]triazolo[1,5-c]pyrimidine-8-carboxylic acid]",20 to 100,c (greater than 0 but less than or equal to 100)

# More lines, main results first:
IC50 (human A2A AdoR) [nM],Structure (SMILES),A1/A2A Selectivity (A1AdoR)
≤ 20,"Nc1nc2c(ncn2CCN2CCN(c3cc(-c4ncco4)ccc3F)CC2)c2nc(C#CC3CC3)nn12 [8-(cyclopropylethynyl)-3-(2-(4-(2-fluoro-5-(oxazol-2-yl)phenyl)piperazin-1-yl)ethyl)-3H-[1,2,4]triazolo[5,1-i]purin-5-amine]",b (greater than 100 but less than or equal to 1000)
≤ 20,CC#Cc1nc2c3ncn(CCN4CCc5ncc(-c6nccs6)cc5C4)c3nc(N)n2n1,c (greater than 0 but less than or equal to 100)
≤ 20,"N#Cc1ccc(N2CCN(CCn3c(C(=O)O)c(Cl)c4c3nc(N)n3nc(-c5ccccn5)nc43)CC2)c(F)c1 [5-amino-9-chloro-7-(2-(4-(4-cyano-2-fluorophenyl)piperazin-1-yl)ethyl)-2-(pyridin-2-yl)-7H-pyrrolo[3,2-e][1,2,4]triazolo[1,5-c]pyrimidine-8-carboxylic acid]",b (greater than 100 but less than or equal to 1000)
≤ 20,"COC(=O)c1c(C)c2c(nc(N)n3nc(-c4ccccn4)nc23)n1CCN1CCCN(c2cc3c(C)noc3cc2F)CC1 [methyl 5-amino-7-(2-(4-(6-fluoro-3-methylbenzo[d]isoxazol-5-yl)-1,4-diazepan-1-yl)ethyl)-9-methyl-2-(pyridin-2-yl)-7H-pyrrolo[3,2-e][1,2,4]triazolo[1,5-c]pyrimidine-8-carboxylate]",b (greater than 100 but less than or equal to 1000)
≤ 20,"Nc1nc2c(ncn2CCN2CCN(c3cc(-n4cccn4)ccc3F)CC2)c2nc(-c3ccccn3)nn12 [3-(2-(4-(2-fluoro-5-(1H-pyrazol-1-yl)phenyl)piperazin-1-yl)ethyl)-8-(pyridin-2-yl)-3H-[1,2,4]triazolo[5,1-i]purin-5-amine]",b (greater than 100 but less than or equal to 1000)
≤ 20,"COC(=O)c1c(Cl)c2c(nc(N)n3nc(-c4ccccn4)nc23)n1CCN1CCN(c2cc(-c3ncco3)ccc2F)CC1 [methyl 5-amino-9-chloro-7-(2-(4-(2-fluoro-5-(oxazol-2-yl)phenyl)piperazin-1-yl)ethyl)-2-(pyridin-2-yl)-7H-pyrrolo[3,2-e][1,2,4]triazolo[1,5-c]pyrimidine-8-carboxylate]",a (greater than 1000)
≤ 20,CNC(=O)c1c(Cl)c2c(nc(N)n3nc(-c4ccccn4)nc23)n1CCN1CCN(c2cc(-c3ncco3)ccc2F)CC1,a (greater than 1000)
20 to 100,CC#Cc1nc2c3ncn(CCN4CCc5ncc(C6COC6)cc5C4)c3nc(N)n2n1,b (greater than 100 but less than or equal to 1000)
≤ 20,"NC(=O)c1c(Cl)c2c(nc(N)n3nc(-c4ccccn4)nc23)n1CCN1CCN(c2cc(-c3ncco3)ccc2F)CC1 [5-amino-9-chloro-7-(2-(4-(2-fluoro-5-(oxazol-2-yl)phenyl)piperazin-1-yl)ethyl)-2-(pyridin-2-yl)-7H-pyrrolo[3,2-e][1,2,4]triazolo[1,5-c]pyrimidine-8-carboxamide]",a (greater than 1000)
≤ 20,CC#Cc1nc2c3ncn(CCN4CCN(c5ccc(OC(C)(C)C(=O)OC)cc5F)CC4)c3nc(N)n2n1,a (greater than 1000)
≤ 20,"COC(=O)c1cc2c(nc(N)n3nc(-c4ccccn4)nc23)n1CCN1CCN(c2cc(-c3ncco3)ccc2F)CC1 [methyl 5-amino-7-(2-(4-(2-fluoro-5-(oxazol-2-yl)phenyl)piperazin-1-yl)ethyl)-2-(pyridin-2-yl)-7H-pyrrolo[3,2-e][1,2,4]triazolo[1,5-c]pyrimidine-8-carboxylate]",a (greater than 1000)
20 to 100,Cc1c(C(=O)O)n(CCN2CCN(c3ccncc3)CC2)c2nc(N)n3nc(-c4ccccn4)nc3c12,c (greater than 0 but less than or equal to 100)
